pIC50: −log10 of the molar value.
These molecules were tested against T1, Dipeptidyl Peptidase-IV (DPP-IV) (Homo sapiens, UniProt P27487) (assay: Measurement of DPP-IV Activity-Inhibiting Ability (fluorescent substrate Ac-Gly-Pro-AFC)). Details: 25° C., 50 mmol HEPES (pH 7.4), DP-IV 7.1 nM, enzyme reaction for 1 hour.
T1 construct: made in house
Format: biochemical
Source text: Dipeptidyl Peptidase-IV (DPP-IV), known as serine protease, was obtained by a modification of the known method (Tanaka T. et al, Proc. Natl. Acad. Sci. USA, (1994) 91, 3082-3086), which comprises cloning, purification by use of Baculo-Virus and activation steps. DPP-IV was used to test the pharmaceutical efficacy of candidate inhibitors as follows. The cloned DP-IV was expressed in Baculo-Virus, which was purified by nickel column and then subjected to dialysis. The inhibitors synthesized in Examples were tested to determine the binding activity there of using a fluorescent substrate, Ac-Gly-Pro-AFC. Enzyme reactions were conducted for various concentrations of inhibitors, using 100 µM Ac-Gly-Pro-AFC at 25° C. in a buffer solution containing 50 mmol HEPES (pH 7.4), with the concentration of DP-IV being 7.1 nM. […] As the fluorescent spectrometer, Spectra MAX GeminiXS fluorescent spectrometer from Molecular Device Co. was used and the excitation frequency and emission frequency were set to 400 nm and 505 nm, respectively.

T1 sequence (P27487 whole entry): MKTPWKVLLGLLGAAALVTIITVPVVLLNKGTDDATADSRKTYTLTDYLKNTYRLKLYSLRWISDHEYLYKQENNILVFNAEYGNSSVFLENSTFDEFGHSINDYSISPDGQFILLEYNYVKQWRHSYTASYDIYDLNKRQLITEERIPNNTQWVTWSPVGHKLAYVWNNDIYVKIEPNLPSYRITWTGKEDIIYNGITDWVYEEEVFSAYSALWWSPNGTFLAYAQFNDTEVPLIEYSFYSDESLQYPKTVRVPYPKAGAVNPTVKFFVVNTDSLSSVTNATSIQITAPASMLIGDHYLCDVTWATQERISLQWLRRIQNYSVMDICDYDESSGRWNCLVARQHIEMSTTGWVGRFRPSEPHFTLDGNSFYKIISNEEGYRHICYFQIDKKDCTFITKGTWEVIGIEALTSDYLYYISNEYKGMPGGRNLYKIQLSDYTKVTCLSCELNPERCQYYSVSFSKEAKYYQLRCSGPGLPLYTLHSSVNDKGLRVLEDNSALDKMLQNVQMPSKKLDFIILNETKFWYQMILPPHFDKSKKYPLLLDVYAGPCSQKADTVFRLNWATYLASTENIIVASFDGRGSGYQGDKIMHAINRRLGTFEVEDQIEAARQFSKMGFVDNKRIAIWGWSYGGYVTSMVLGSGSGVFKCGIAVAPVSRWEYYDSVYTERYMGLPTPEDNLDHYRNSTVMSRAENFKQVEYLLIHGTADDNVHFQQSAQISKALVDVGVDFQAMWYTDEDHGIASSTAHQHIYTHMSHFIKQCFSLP

SMILES | pIC50
C[C@@H]1CCC(=O)N(C[C@@H](N)CC(=O)N2CCc3c(nc(-c4ccc(F)cc4)nc3C(F)(F)F)C2)C1 [Ex. 34, (5R)-1-{(2S)-2-amino-4-[2-(4-fluorophenyl)-4-(trifluoromethyl)-5,8-dihydropyrido[3,4-d]pyrimidin-7(6H)-yl]-4-oxobutyl}-5-methylpiperidin-2-one] | 7.47
CC1CC(=O)N(C[C@@H](N)CC(=O)N2CCc3ccccc3C2)C1 (stereo partly drawn) [Ex. 18, 1-[2S-amino-4-(3,4-dihydro-1H-isoquinolin-2-yl)-4-oxo-butyl]-4-methyl-pyrrolidin-2-one] | 6.09
C[C@@H]1CCC(=O)N(C[C@@H](N)CC(=O)N2CCc3c(nc(Cc4ccc(F)cc4)nc3C(F)(F)F)C2)C1 [Ex. 58, (5R)-1-{(2S)-2-amino-4-[2-(4-fluorobenzyl)-4-(trifluoromethyl)-5,8-dihydropyrido[3,4-d]pyrimidin-7(6H)-yl]-4-oxobutyl}-5-methylpiperidin-2-one] | 7.85
N[C@@H](CC(=O)N1CCn2c(nnc2C(F)(F)F)C1)CN1CCCC1=O [Ex. 6, 1-[2S-amino-4-oxo-4-(3-trifluoromethyl-5,6-dihydro-8H-[1,2,4]triazolo[4,3-a]pyrazin-7-yl)-butyl]-pyrrolidin-2-one] | 6.00
C[C@@H]1CCC(=O)N(C[C@@H](N)CC(=O)N2CCc3c(nc(-c4cccnc4)nc3C(F)(F)F)C2)C1 [Ex. 70, (5R)-1-{(2S)-2-amino-4-oxo-4-[2-pyridin-3-yl-4-(trifluoromethyl)-5,8-dihydropyrido[3,4-d]pyrimidin-7(6H)-yl]butyl}-5-methylpiperidin-2-one] | 8.10
N[C@@H](CC(=O)N1CCc2c(nc(-c3ccoc3)nc2C(F)(F)F)C1)CN1CC(C(F)(F)F)CC1=O (stereo partly drawn) [Ex. 109, 1-{(2S)-2-amino-4-[2-(3-furyl)-4-(trifluoromethyl)-5,8-dihydropyrido[3,4-d]pyrimidin-7(6H)-yl]-4-oxobutyl}-4-(trifluoromethyl)pyrrolidin-2-one] | 7.26
CC1=CC(=O)N(C[C@@H](N)CC(=O)N2CCc3c(nc(-c4ccoc4)nc3C(F)(F)F)C2)C1 [Ex. 104, 1-{(2S)-2-amino-4-[2-(3-furyl)-4-(trifluoromethyl)-5,8-dihydropyrido[3,4-d]pyrimidin-7(6H)-yl]-4-oxobutyl}-4-methyl-1,5-dihydro-2H-pyrrol-2-one] | 6.96
N[C@@H](CC(=O)N1CCc2sc(C3CCOCC3)nc2C1)CN1CC(F)(F)CCC1=O [Ex. 49, 1-{(2S)-2-amino-4-oxo-4-[2-(tetrahydro-2H-pyran-4-yl)-6,7-dihydro[1,3]thiazolo[4,5, c]pyridin-5(4H)-yl]butyl}-5,5-difluoropiperidin-2-one] | 6.63
N[C@@H](CC(=O)N1CCn2c(nnc2C(F)(F)F)C1)CN1CCC(F)C1=O (stereo partly drawn) [Ex. 5, 1-[2S-amino-4-oxo-4-(3-trifluoromethyl-5,6-dihydro-8H-[1,2,4]triazolo[4,3-a]pyrazin-7-yl)-butyl]-3-fluoro-pyrrolidin-2-one] | < 5.00
C[C@H]1CN(C[C@@H](N)CC(=O)N2CCc3c(ncnc3C(F)(F)F)C2)C(=O)CO1 [Ex. 88, (6S)-4-{(2S)-2-amino-4-oxo-4-[4-(trifluoromethyl)-5,8-dihydropyrido[3,4-d]pyrimidin-7(6H)-yl]butyl}-6-methylmorpholine-3-one] | 7.32
CC1CC(=O)N(C[C@@H](N)CC(=O)N2CCc3c(nc(-c4ccoc4)nc3C(F)(F)F)C2)C1 (stereo partly drawn) [Ex. 106, 1-{(2S)-2-amino-4-[2-(3-furyl)-4-(trifluoromethyl)-5,8-dihydropyrido[3,4-d]pyrimidin-7(6H)-yl]-4-oxobutyl}-4-methylpyrrolidin-2-one] | 7.35
C[C@@H]1CCC(=O)N(C[C@@H](N)CC(=O)N2CCc3sc(-c4ccc(C(F)(F)F)cc4)nc3C2)C1 [Ex. 41, (5R)-1-[(2S)-2-amino-4-oxo-4-{2-[4-(trifluoromethyl)phenyl]-6,7-dihydro[1,3]thiazolo[4,5,c]pyridin-5(4H)-yl}butyl]-5-methylpiperidin-2-one] | 7.85
N[C@@H](CC(=O)N1CCc2c(C(F)(F)F)n[nH]c2C1)CN1CCCCC1=O [Ex. 20, 1-[2S-amino-4-oxo-4-(3-trifluoromethyl-1,4,5,7-tetrahydro-pyrazolo[3,4-c]pyridin-6-yl)-butyl]-piperidin-2-one] | 6.57
CC1=CC(=O)N(C[C@@H](N)CC(=O)N2CCn3c(nnc3C(F)(F)F)C2)C1 [Ex. 9, 1-[2S-amino-4-oxo-4-(3-trifluoromethyl-5,6-dihydro-8H-[1,2,4]triazolo[4,3-a]pyrazin-7-yl)-butyl]-4-methyl-1,5-dihydro-pyrrol-2-one] | 6.70

Next, values leading:

pIC50 | SMILES
6.67 | N[C@@H](CC(=O)N1CCn2c(nnc2C(F)(F)C(F)(F)F)C1)CN1CC(F)(F)CCC1=O [Ex. 89, 1-{(2S)-2-amino-4-oxo-4-[3-(pentafluoroethyl)-5,6-dihydro[1,2,4]triazolo[4,3-a]pyrazin-7(8H)-yl]butyl}-5,5-difluoropiperidin-2-one]
5.93 | N[C@@H](CC(=O)N1CCc2c(cccc2C(F)(F)F)C1)CN1CC(F)(F)CCC1=O [Ex. 28, 1-{(2S)-2-amino-4-oxo-4-[5-(trifluoromethyl)-3,4-dihydroisoquinolin-2(1H)-yl]butyl}5,5-difluoropiperidin-2-one]
7.18 | N[C@@H](CC(=O)N1CCc2c(nc(-c3ccccc3)nc2C(F)(F)F)C1)CN1CC(F)(F)CCC1=O [Ex. 24, 1-{(2S)-2-amino-4-oxo-4-[2-phenyl-4-(trifluoromethyl)-5,8-dihydropyrido[3,4-d]pyrimidin-7(6H)-yl]butyl}-5,5-difluoropiperidin-2-one]
7.52 | N[C@@H](CC(=O)N1CCc2c(nc(C3CCCC3)nc2C(F)(F)F)C1)CN1CC(F)(F)CCC1=O [Ex. 40, 1-{(2S)-2-amino-4-[2-cyclopentyl-4-(trifluoromethyl)-5,8-dihydropyrido[3,4-d]pyrimidin-7(6H)-yl]-4-oxobutyl}-5,5-difluoropiperidin-2-one]
7.54 | N[C@@H](CC(=O)N1CCc2c(ncnc2C(F)(F)F)C1)CN1CC(F)(F)CCC1=O [Ex. 87, 1-{(2S)-2-amino-4-oxo-4-[4-(trifluoromethyl)-5,8-dihydropyrido[3,4-d]pyrimidin-7(6H)-yl]butyl}-5,5-difluoropiperidin-2-one]
7.52 | CC(C)c1nc2c(c(C(F)(F)F)n1)CCN(C(=O)C[C@H](N)CN1C[C@H](C)OCC1=O)C2 [Ex. 76, (6S)-4-{(2S)-2-amino-4-[2-isopropyl-4-(trifluoromethyl)-5,8-dihydropyrido[3,4-d]pyrimidin-7(6H)-yl]-4-oxobutyl}-6-methylmorpholine-3-one]
8.00 | Cc1nc2c(c(C(F)(F)F)n1)CCN(C(=O)C[C@H](N)CN1C[C@H](C)CCC1=O)C2 [Ex. 81, (5R)-1-{(2S)-2-amino-4-[2-methyl-4-(trifluoromethyl)-5,8-dihydropyrido[3,4-d]pyrimidin-7(6H)-yl]-4-oxobutyl}-5-methylpiperidin-2-one]
7.07 | CC1CN(C[C@@H](N)CC(=O)N2CCc3c(nc(C(F)(F)F)nc3C(F)(F)F)C2)C(=O)CS1 (stereo partly drawn) [Ex. 91, 4-{(2S)-2-amino-4-[2,4-bis(trifluoromethyl)-5,8-dihydropyrido[3,4-d]pyrimidin-7(6H)-yl]-4-oxobutyl}-6-methylthiomorpholin-3-one]
7.80 | Cc1nc2c(c(C(F)(F)F)n1)CCN(C(=O)C[C@H](N)CN1CC(F)(F)CCC1=O)C2 [Ex. 85, 1-{(2S)-2-amino-4-[2-methyl-4-(trifluoromethyl)-5,8-dihydropyrido[3,4-d]pyrimidin-7(6H)-yl]-4-oxobutyl}-5,5-difluoropiperidin-2-one]
8.05 | N[C@@H](CC(=O)N1CCc2c(nc(C3CC3)nc2C(F)(F)F)C1)CN1CC(F)(F)CCC1=O [Ex. 25, 1-{(2S)-2-amino-4-[2-cyclopropyl-4-(trifluoromethyl)-5,8-dihydropyrido[3,4-d]pyrimidin-7(6H)-yl]-4-oxobutyl}-5,5-difluoropiperidin-2-one]
7.80 | C[C@@H]1CCC(=O)N(C[C@@H](N)CC(=O)N2CCc3c(nc(C(F)(F)F)nc3C(F)(F)F)C2)C1 [Ex. 82, (5R)-1-{(2S)-2-amino-4-[2,4-bis(trifluoromethyl)-5,8-dihydropyrido[3,4-d]pyrimidin-7(6H)-yl]-4-oxobutyl}-5-methylpiperidin-2-one]
7.32 | CC(C)(C)c1nc2c(c(C(F)(F)F)n1)CCN(C(=O)C[C@H](N)CN1CC(F)(F)CCC1=O)C2 [Ex. 92, 1-{(2S)-2-amino-4-[2-t-butyl-4-(trifluoromethyl)-5,8-dihydropyrido[3,4-d]pyrimidin-7(6H)-yl]-4-oxobutyl}-5,5-difluoropiperidin-2-one]
8.15 | C[C@@H]1CCC(=O)N(C[C@@H](N)CC(=O)N2CCc3c(nc(C(F)(F)C(F)(F)F)nc3C(F)(F)F)C2)C1 [Ex. 96, (5R)-1-{(2S)-2-amino-4-oxo-4-[2-(pentafluoroethyl)-4-(trifluoromethyl)-5,8-dihydropyrido[3,4-d]pyrimidin-7(6H)-yl]butyl}-5-methylpiperidin-2-one]
7.26 | N[C@@H](CC(=O)N1CCc2c(nc(-c3ccsc3)nc2C(F)(F)F)C1)CN1CC(F)(F)CCC1=O [Ex. 61, 1-{(2S)-2-amino-4-oxo-4-[2-(3-thienyl)-4-(trifluoromethyl)-5,8-dihydropyrido[3,4-d]pyrimidin-7(6H)-yl]butyl}-5,5-difluoropiperidin-2-one]
